Measured values taken from the NIST ThermoML archive (doi:10.1016/j.jct.2014.03.014).
Where “and” joins values, the source holds several entries; their conditions need not be identical. Identical values can stand only once.

Settings: Liquid, Closed cell (Static) method

FC(F)CC(F)(F)F [1,1,1,3,3-pentafluoropropane]
Settings	vapor or sublimation pressure
293.15 K	122.7 kPa
295.08 K	132.2 kPa
295.57 K	134.7 kPa
296.57 K	139.9 kPa
297.57 K	145.2 kPa
298.57 K	150.6 kPa and 150.7 kPa
298.58 K	150.7 kPa
299.61 K	156.5 kPa
300.61 K	162.4 kPa
301.62 K	168.4 kPa
302.63 K	174.6 kPa
303.15 K	177.9 kPa
303.64 K	181 kPa
304.64 K	187.6 kPa
305.65 K	194.3 kPa
306.66 K	201.2 kPa
307.67 K	208.3 kPa
308.68 K	215.7 kPa
309.7 K	223.3 kPa
310.72 K	231.1 kPa
311.74 K	239.1 kPa
313.15 K	250.3 kPa
313.71 K	255.2 kPa
315.74 K	272.6 kPa
317.76 K	290.8 kPa
318.78 K	300.3 kPa
319.77 K	309.9 kPa
321.71 K	329.1 kPa
323.15 K	344 kPa
323.73 K	349.9 kPa
325.71 K	371.6 kPa
327.68 K	394 kPa
329.67 K	417.9 kPa
330.68 K	430.4 kPa
331.7 K	443.4 kPa
333.71 K	469.6 kPa
335.73 K	497.1 kPa
337.74 K	525.9 kPa
338.75 K	540.8 kPa
339.77 K	556.1 kPa
341.82 K	587.9 kPa
343.82 K	620.4 kPa
343.88 K	621 kPa
345.87 K	654.6 kPa
347.86 K	689.5 kPa
348.87 K	707.6 kPa and 707.7 kPa
349.86 K	725.9 kPa
350.86 K	744.6 kPa
351.87 K	763.8 kPa
352.87 K	783.3 kPa

CC(C)C [2-methylpropane]
Settings	vapor or sublimation pressure [kPa]
293.15 K	302.2
293.58 K	306.7
295.58 K	325.6
297.58 K	345.2
299.59 K	365.9
301.61 K	387.6
303.15 K	404.7
303.62 K	410.2
305.63 K	433.9
307.64 K	458.6
309.65 K	484.2
311.66 K	510.9
313.15 K	531.6
313.69 K	538.7
315.7 K	567.9
317.73 K	598.1
319.72 K	629
321.75 K	661.7
323.15 K	685.6
323.82 K	696.1
325.77 K	730.9
327.73 K	765.3
329.74 K	802.7
331.72 K	840.8
333.71 K	880.5
335.74 K	922.5
337.79 K	966.2
339.85 K	1011.5
341.75 K	1054.5
343.78 K	1102.5
343.88 K	1105.1
345.86 K	1153.1
347.86 K	1204.4
349.9 K	1256.3
351.91 K	1309.8
353.91 K	1365.1
